Measured values taken from patent US8735414B2 (priority 2009, dated 2014).

How the values were obtained:
[1] = test system: bicistronic HCV replicon (replicon RNA, GenBank Accession No. AJ242654); experiment: HCV Replicon Assay; type: cell-based; details: Hepatitis C virus, 72 h, read-out: Replicon IC50

| SMILES | IC50 [1] [nM] | melting point [°C] |
| --- | --- | --- |
| CC(C)(C)S(=O)(=O)Nc1ccc(-c2c(C(N)=O)c3cc(F)c(C4CC4)cc3n2-c2ccccc2)cn1 [compound 1100, 2-{6-[(tert-butylsulfonyl)amino]pyridin-3-yl}-6-cyclopropyl-5-fluoro-1-phenyl-1H-indole-3-carboxamide] | < 500 | 272 to 274 |
| C[C@H](NS(=O)(=O)c1ccc(-c2c(C#N)c3ccc(C(F)(F)F)cc3n2-c2ncccn2)nc1)C(F)(F)F [compound 950, 6-[3-cyano-1-(pyrimidin-2-yl)-6-(trifluoromethyl)-1H-indol-2-yl]-N-[(2S)-1,1,1-trifluoropropan-2-yl]pyridine-3-sulfonamide] | < 500 | 206 to 210 |
| Cc1ccc2c(c1)c(C#N)c(-c1ccc(S(=O)(=O)N[C@@H](C)C(F)(F)F)cn1)n2C1CCCC1 [compound 345, 6-(3-cyano-1-cyclopentyl-5-methyl-1H-indol-2-yl)-N-[(2S)-1,1,1-trifluoropropan-2-yl]pyridine-3-sulfonamide] | < 500 | 195 to 200 |
| Cc1ccc2c(C#N)c(-c3ccc(NS(=O)(=O)C4CC4)cn3)n(C3CCCC3)c2c1 [compound 296, N-[6-(3-cyano-1-cyclopentyl-6-methyl-1H-indol-2-yl)pyridin-3-yl]cyclopropanesulfonamide] | 2000 to 5000 | 241 to 245 |
| Cc1c(OC(F)F)c(F)cc2c(C#N)c(-c3ccc(S(=O)(=O)N[C@@H](C)C(F)(F)F)cn3)n(C3CCC3)c12 [compound 811, 6-[3-cyano-1-cyclobutyl-6-(difluoromethoxy)-5-fluoro-7-methyl-1H-indol-2-yl]-N-[(2S)-1,1,1-trifluoropropan-2-yl]pyridine-3-sulfonamide] | < 500 | 168 to 174 |
| C[C@H](NS(=O)(=O)c1ccc(-c2c(C(N)=O)c3cc(F)c(Cl)cc3n2C2CCC2)nc1)C(F)(F)F [compound 736, 6-chloro-1-cyclobutyl-5-fluoro-2-(5-{[(2S)-1,1,1-trifluoropropan-2-yl]sulfamoyl}pyridin-2-yl)-1H-indole-3-carboxamide] | < 500 | 241 to 243 |
| Cc1ccc2c(c1)c(C#N)c(-c1ccc(S(=O)(=O)N[C@H](C)C(F)(F)F)cn1)n2C(C)C [compound 485, 6-[3-cyano-5-methyl-1-(propan-2-yl)-1H-indol-2-yl]-N-[(2R)-1,1,1-trifluoropropan-2-yl]pyridine-3-sulfonamide] | < 500 | 167 to 173 |
| Cc1ccc2c(c1)c(C#N)c(-c1ccc(S(=O)(=O)NC(CF)CF)cn1)n2CC1CC1 [compound 373, 6-[3-cyano-1-(cyclopropylmethyl)-5-methyl-1H-indol-2-yl]-N-(1,3-difluoropropan-2-yl)pyridine-3-sulfonamide] | < 500 | 186 to 188 |
| CC1(NS(=O)(=O)c2ccc(-c3c(C#N)c4cc(Cl)c(OC(F)F)cc4n3C3CCC3)nc2)CC1 [compound 658, 6-[5-chloro-3-cyano-1-cyclobutyl-6-(difluoromethoxy)-1H-indol-2-yl]-N-(1-methylcyclopropyl)pyridine-3-sulfonamide] | < 500 | 218 to 226 |
| C[C@H](NS(=O)(=O)c1ccc(-c2c(C#N)c3ccc(F)cc3n2C2CCC2)nc1)C(F)(F)F [compound 395, 6-(3-cyano-1-cyclobutyl-6-fluoro-1H-indol-2-yl)-N-[(2S)-1,1,1-trifluoropropan-2-yl]pyridine-3-sulfonamide] | < 500 | 171 to 172 |
| N#Cc1c(-c2ccc(S(=O)(=O)NC(CF)CF)cn2)n(C2CCC2)c2ccc(Cl)cc12 [compound 30, 6-(5-chloro-3-cyano-1-cyclobutyl-1H-indol-2-yl)-N-(1,3-difluoropropan-2-yl)pyridine-3-sulfonamide] | < 500 | 182 to 186 |
| CC(C)NS(=O)(=O)c1cnc(-c2c(C#N)c3ccc(C4CCC4)cc3n2C2CCC2)nc1 [compound 265, 2-(3-cyano-1,6-dicyclobutyl-1H-indol-2-yl)-N-(propan-2-yl)pyrimidine-5-sulfonamide] | 500 to 2000 | 192 to 194 |
| Cc1cc2c(cc1F)c(C#N)c(-c1ccc(S(=O)(=O)N[C@@H](C)C(F)(F)F)cn1)n2-c1ncc(CO)s1 [compound 984, 6-{3-cyano-5-fluoro-1-[5-(hydroxymethyl)-1,3-thiazol-2-yl]-6-methyl-1H-indol-2-yl}-N-[(2S)-1,1,1-trifluoropropan-2-yl]pyridine-3-sulfonamide] | < 500 | 180 to 185 |
| Cc1cc(F)c2c(C#N)c(-c3ccc(S(=O)(=O)N[C@@H](C)C(F)(F)F)cn3)n(C3CCC3)c2c1 [compound 627, 6-(3-cyano-1-cyclobutyl-4-fluoro-6-methyl-1H-indol-2-yl)-N-[(2S)-1,1,1-trifluoropropan-2-yl]pyridine-3-sulfonamide] | < 500 | 205 to 210 |
| Cc1cc2c(C#N)c(-c3ccc(S(=O)(=O)N[C@@H](C)C(F)(F)F)cn3)n(C3CCCC3)c2cc1Cl [compound 522, 6-(6-chloro-3-cyano-1-cyclopentyl-5-methyl-1H-indol-2-yl)-N-[(2S)-1,1,1-trifluoropropan-2-yl]pyridine-3-sulfonamide] | < 500 | 186 to 187 |
| C[C@H](NS(=O)(=O)c1ccc(-c2c(C#N)c3cc(C(F)F)ccc3n2C2CCCC2)nc1)C(F)(F)F [compound 537, 6-[3-cyano-1-cyclopentyl-5-(difluoromethyl)-1H-indol-2-yl]-N-[(2S)-1,1,1-trifluoropropan-2-yl]pyridine-3-sulfonamide] | < 500 | 187 to 188 |
| CC(C)c1ccc2c(C#N)c(-c3ccc(S(=O)(=O)NC(CF)CF)cn3)n(C(C)C)c2c1 [compound 456, 6-[3-cyano-1,6-di(propan-2-yl)-1H-indol-2-yl]-N-(1,3-difluoropropan-2-yl)pyridine-3-sulfonamide] | < 500 | 165 to 173 |
| Cc1ccc2c(c1)c(C#N)c(-c1ncc(S(=O)(=O)NC(C)C)cn1)n2CC1CC1 [compound 388, 2-[3-cyano-1-(cyclopropylmethyl)-5-methyl-1H-indol-2-yl]-N-(propan-2-yl)pyrimidine-5-sulfonamide] | 500 to 2000 | 219 to 222 |
| C[C@H](NS(=O)(=O)c1cnc(-c2c(C#N)c3ccc(CC(F)F)cc3n2C2CCC2)nc1)C(F)(F)F [compound 385, 2-[3-cyano-1-cyclobutyl-6-(2,2-difluoroethyl)-1H-indol-2-yl]-N-[(2S)-1,1,1-trifluoropropan-2-yl]pyrimidine-5-sulfonamide] | < 500 | 216 to 218 |
| Cc1ccc2c(C#N)c(-c3ccc(S(=O)(=O)NC(CF)CF)cn3)n(C(C)C)c2c1 [compound 80, 6-[3-cyano-6-methyl-1-(propan-2-yl)-1H-indol-2-yl]-N-(1,3-difluoropropan-2-yl)pyridine-3-sulfonamide] | < 500 | 188 to 195 |
| N#Cc1c(-c2ccc(S(=O)(=O)NC(CF)CF)cn2)n(C2CCCC2)c2cc(Cl)ccc12 [compound 64, 6-(6-chloro-3-cyano-1-cyclopentyl-1H-indol-2-yl)-N-(1,3-difluoropropan-2-yl)pyridine-3-sulfonamide] | < 500 | 236 to 240 |
| CC(C)NS(=O)(=O)c1ccc(-c2c(C#N)c3cc(F)ccc3n2-c2ccccn2)nc1 [compound 439, 6-[3-cyano-5-fluoro-1-(pyridin-2-yl)-1H-indol-2-yl]-N-(propan-2-yl)pyridine-3-sulfonamide] | < 500 | 208 to 210 |
| CC(C)NS(=O)(=O)c1cnc(-c2c(C#N)c3ccc(OC(F)F)cc3n2C2CCC2)nc1 [compound 127, 2-[3-cyano-1-cyclobutyl-6-(difluoromethoxy)-1H-indol-2-yl]-N-(propan-2-yl)pyrimidine-5-sulfonamide] | < 500 | 192 to 194 |
| Cc1cc2c(C#N)c(-c3ccc(S(=O)(=O)NC(CF)CF)cn3)n(C3CCCC3)c2cc1Cl [compound 521, 6-(6-chloro-3-cyano-1-cyclopentyl-5-methyl-1H-indol-2-yl)-N-(1,3-difluoropropan-2-yl)pyridine-3-sulfonamide] | < 500 | 217.5 to 218 |
| CC(C)n1c(-c2ncc(S(=O)(=O)NC(CF)CF)cn2)c(C#N)c2ccc(F)cc21 [compound 165, 2-[3-cyano-6-fluoro-1-(propan-2-yl)-1H-indol-2-yl]-N-(1,3-difluoropropan-2-yl)pyrimidine-5-sulfonamide] | 500 to 2000 | 149 to 150 |
| CCc1cc2c(cc1F)c(C#N)c(-c1ccc(S(=O)(=O)N[C@@H](C)C(F)(F)F)cn1)n2-c1ccc(C(F)(F)F)cc1 [compound 1006, 6-{3-cyano-6-ethyl-5-fluoro-1-[4-(trifluoromethyl)phenyl]-1H-indol-2-yl}-N-[(2S)-1,1,1-trifluoropropan-2-yl]pyridine-3-sulfonamide] | 500 to 2000 | 276 to 282 |
| Cc1cc2c(cc1F)c(C(N)=O)c(-c1ccc(S(=O)(=O)N[C@@H](C)C(F)(F)F)cn1)n2C1CCOCC1 [compound 769, 5-fluoro-6-methyl-1-(tetrahydro-2H-pyran-4-yl)-2-(5-{[(2S)-1,1,1-trifluoropropan-2-yl]sulfamoyl}pyridin-2-yl)-1H-indole-3-carboxamide] | < 500 | 261 to 264 |
| N#Cc1c(-c2ccc(S(=O)(=O)NC(CF)CF)cn2)n(C2CCCC2)c2c(F)cccc12 [compound 87, 6-(3-cyano-1-cyclopentyl-7-fluoro-1H-indol-2-yl)-N-(1,3-difluoropropan-2-yl)pyridine-3-sulfonamide] | < 500 | 128 to 129 |
| Cc1cc2c(cc1F)c(C#N)c(-c1ccc(S(=O)(=O)N[C@@H](C)C(F)(F)F)cn1)n2-c1ccc([N+](=O)[O-])cn1 [compound 744, 6-[3-cyano-5-fluoro-6-methyl-1-(5-nitropyridin-2-yl)-1H-indol-2-yl]-N-[(2S)-1,1,1-trifluoropropan-2-yl]pyridine-3-sulfonamide] | < 500 | 260 to 263 |
